Key:
Normal human fibroblasts [1] = assay: Test for confirming anti-aging effect: amount of senescent cells by SA-β-gal (SPiDER-βGal) staining; format: cell-based; settings: for amount of the senescent cells relative to Control: Control = 100%, Example 1/2/3 = 0.002/0.01/0.05 wt % ingredient, Comparative Example 1 = 0.0023 wt % resveratrol
Method: Subsequent to initiation, Normal human fibroblasts (KURABO INDUSTRIES LTD., product No.: KF-4109) were cultured in a basal medium (DMEM (Nacalai Tesque, Inc., product No.: 08456-65)), 10% FBS (BioWest, product No.: S1820, Lot No. 516536), and 1% antibiotic (penicillin-streptomycin mixed solution (Nacalai Tesque, Inc., product No.: 26253-84)) in a CO2 incubator (5% CO2, 37° C.) until a required number of cells were obtained. […] After the resolution, Example and Comparative Example resolved in a basal medium were centrifuged respectively (120,000 rpm (2,000 s^-1), 10 minutes) to remove insoluble materials. After the centrifugal separation, supernatant was collected, filtered and sterilized through a sterilizing filter to be used for each test. Anti-aging effect of Example and Comparative Example was tested by measuring an activity of β-galactosidase (senescence-associated β-galactosidase; SA-β-gal) generally used as a cell aging marker. Normal human fibroblasts prepared with a basal medium was seeded on a 96-well plate so as to be 1×10^4 cells/0.1 ml/well (black plate for fluorescence observation (Sumitomo Bakelite Co., Ltd. product No.: MS-8096F)) and cultured for 24 hours. After the culture, culture supernatants were respectively replaced with the below mediums with different conditions, and normal human fibroblasts were cultured again. The conditions for each medium are as follows. Each cell cultured with mediums with each condition are referred to as Examples 1-3, Comparative Example 1, and Control respectively. Example 1: a basal medium comprising 0.002 wt % of grape seed-derived anti-aging ingredients of the present invention. Example 2: a basal medium comprising 0.01 wt % of grape seed-derived anti-aging ingredients of the present invention. Example 3: a basal medium comprising 0.05 wt % of grape seed-derived anti-aging ingredients of the present invention. Comparative Example 1: a basal medium containing 0.0023 wt % of resveratrol. Control: a basal medium (comprising no grape seed-derived anti-aging ingredients of the present invention nor resveratrol). Normal human fibroblasts were cultured respectively with the conditions for up to 21 days. The mediums were exchanged every 2 to 3 days. After the culture, culture supernatants were removed and the cells were washed twice with PBS (Nissui Pharmaceutical Co., Ltd., product No.: 05913). […] After wash, the basal medium was added to normal human fibroblasts, and nuclei staining (living cells) and stained images of the senescent cells were taken by a fluorescence microscope (Keyence Corporation, product No.: BZ-[…]). The amount of the senescent cells were calculated based on the respective fluorescent images. […]

Normal human fibroblasts [2] = assay: Amount of mitochondria (Mito Tracker Mitochondrion-Selective Probes); format: cell-based; settings: for amount of mitochondria relative to Control: Control = 100%, Example 1/2/3 = 0.002/0.01/0.05 wt % ingredient, Comparative Example 1 = 0.0023 wt % resveratrol
Description: Example 1: a basal medium comprising 0.002 wt % of grape seed-derived anti-aging ingredients of the present invention. Example 2: a basal medium comprising 0.01 wt % of grape seed-derived anti-aging ingredients of the present invention. Example 3: a basal medium comprising 0.05 wt % of grape seed-derived anti-aging ingredients of the present invention. Comparative Example 1: a basal medium containing 0.0023 wt % of resveratrol. Control: a basal medium (comprising no grape seed-derived anti-aging ingredients of the present invention nor resveratrol). The amount of mitochondria was measured using Mito Tracker Mitochondrion-Selective Probes (Invitrogen, product No.: M7512) which can selectively label mitochondria in a cell. After removing culture supernatants of normal human fibroblasts cultured in Example 2, normal human fibroblasts were washed twice with PBS (Nissui Pharmaceutical Co., Ltd., product No.: 05913). To the washed cells were added a basal medium comprising a 1000-fold diluted Hoechist 33342 solution (DOJINDO LABORATORIES, product No.: 346-07951) and a 2000-fold diluted Mito Tracker Mitochondrion-Selective Probes (Invitrogen, product No.: M7512), and normal human fibroblasts were cultured at 37° C. for 30 minutes. After the culture, culture supernatants were removed and normal human fibroblasts were washed twice with PBS (Nissui Pharmaceutical Co., Ltd., product No.: 05913). After wash, PBS (Nissui Pharmaceutical Co., Ltd., product No.: 05913) was newly added to the normal human fibroblasts, and nuclei staining (living cells) and stained images of mitochondria were taken by a fluorescence microscope (Keyence Corporation, product No.: BZ-[…]). Subsequently, each fluorescence intensity was measured using a fluorescent plate reader (Thermo Fisher Scientific, product No.: VARIOSKAN FLASH) (Hoechis: excitation wavelength 356 nm, fluorescence wavelength 465 nm, Mito Tracker: excitation wavelength 579 nm, fluorescence wavelength 599 nm).

Normal human fibroblasts [3] = assay: Workload of a certain amount of mitochondria (MTT assay); format: cell-based; settings: for workload of a certain amount of mitochondria relative to Control: Control = 100%, Example 1/2/3 = 0.002/0.01/0.05 wt % ingredient, Comparative Example 1 = 0.0023 wt % resveratrol
Description: Example 1: a basal medium comprising 0.002 wt % of grape seed-derived anti-aging ingredients of the present invention. Example 2: a basal medium comprising 0.01 wt % of grape seed-derived anti-aging ingredients of the present invention. Example 3: a basal medium comprising 0.05 wt % of grape seed-derived anti-aging ingredients of the present invention. Comparative Example 1: a basal medium containing 0.0023 wt % of resveratrol. Control: a basal medium (comprising no grape seed-derived anti-aging ingredients of the present invention nor resveratrol). The workload of a certain amount of mitochondria was measured by MTT assay. Since the only target of MTT assay is dehydrogenase activity of mitochondria, the result of MTT assay reflects the workload of a certain amount of mitochondria. After measuring the fluorescence intensity, supernatants were removed, and normal human fibroblasts were washed once with PBS (Nissui Pharmaceutical Co., Ltd., product No.: 05913). After the normal human fibroblasts were washed, they were replaced with PBS (100 μl/well) comprising 0.5 mg/ml of MTT (Thiazolyl Blue Tetrazolium Bromide (SIGMA, product No.: […] Subsequently, 100 μl of 0.01M HCl (SIGMA, product No.: 13-1690) and 10% SDS (Wako Pure Chemical Corporation, product No.: 191-07145) were added to each well and reacted at room temperature for 24 hours. After the reaction, formazan of MTT was resolved. After resolving formazan, absorbance was measured using a plate reader (Thermo Fisher Scientific, product No.: VARIOSKAN FLASH) (measurement wavelength 550 nm, reference wavelength 660 nm).

Normal human fibroblasts [4] = assay: Amount of apoptosis cells (FITC-Annexin V staining); format: cell-based; settings: for amount of the apoptosis cells compared to the Control: Control = 100%, Example 1/2/3 = 0.002/0.01/0.05 wt % ingredient, Comparative Example 1 = 0.0023 wt % resveratrol
Description: Example 1: a basal medium comprising 0.002 wt % of grape seed-derived anti-aging ingredients of the present invention. Example 2: a basal medium comprising 0.01 wt % of grape seed-derived anti-aging ingredients of the present invention. Example 3: a basal medium comprising 0.05 wt % of grape seed-derived anti-aging ingredients of the present invention. Comparative Example 1: a basal medium containing 0.0023 wt % of resveratrol. Control: a basal medium (comprising no grape seed-derived anti-aging ingredients of the present invention nor resveratrol). The amount of the apoptosis cells was measured using Annexin V which has been conventionally used as an apoptosis marker. In more detail, the amount of the apoptosis cells was measured by selectively fluorescently-staining the apoptosis cells by fluorescently labeled Annexin V, using its property that Annexin V binds to phosphatidylserine often appearing on a surface of the apoptosis cells. After removing the culture supernatant of a normal human fibroblast cultured in Example 2, the normal human fibroblast was washed twice with PBS (NISSUI PHARMACEUTICAL CO., LTD., product No.: 05913). To the washed normal human fibroblast were added a 1×Binding Buffer containing a 1000-fold diluted Hoechist 33342 solution (DOJINDO LABORATORIES, product No.: 346-079511), a 20-fold diluted FITC-Annexin V, and a 20-fold diluted EthD-III. Then, the normal human fibroblast was cultured at 37° C. for 30 minutes. Then, after removing culture supernatant, the normal human fibroblast was washed twice in the 1×Binding Buffer. New 1×Binding Buffer was added to the normal human fibroblast after the washing, and images of nuclear staining (viable cell), Annexin V staining (apoptosis), and an EthD-III staining (necrosis) were taken by a fluorescence microscope. The amount of apoptosis cells and the amount of necrosis cells were calculated from the fluorescent observation images. Furthermore, FITC-Annexin V, EthD-III and 1×Binding Buffer used in Examples were from Apoptotic/Necrotic/Healthy Cells Detection Kit (Takara Bio, Inc. product No.: D25517).

Normal human fibroblasts [5] = assay: Amount of necrosis cells (EthD-III staining); format: cell-based; settings: for amount of the necrosis cells compared to the Control: Control = 100%, Comparative Example 1 = 0.0023 wt % resveratrol
Description: Example 1: a basal medium comprising 0.002 wt % of grape seed-derived anti-aging ingredients of the present invention. Example 2: a basal medium comprising 0.01 wt % of grape seed-derived anti-aging ingredients of the present invention. Example 3: a basal medium comprising 0.05 wt % of grape seed-derived anti-aging ingredients of the present invention. Comparative Example 1: a basal medium containing 0.0023 wt % of resveratrol. Control: a basal medium (comprising no grape seed-derived anti-aging ingredients of the present invention nor resveratrol). […] The amount of the necrosis cells was measured using an ethidium homodimer III (EthD-III) which has been conventionally used as a necrosis marker. In more detail, EthD-III is a film-impermeable nucleic acid probe and the amount of the necrosis cells was measured by using its property that neither the viable cells nor the apoptosis cells are stained but the necrosis cells are stained in strong red with EthD-III. After removing the culture supernatant of a normal human fibroblast cultured in Example 2, the normal human fibroblast was washed twice with PBS (NISSUI PHARMACEUTICAL CO., LTD., product No.: 05913). To the washed normal human fibroblast were added a 1×Binding Buffer containing a 1000-fold diluted Hoechist 33342 solution (DOJINDO LABORATORIES, product No.: 346-079511), a 20-fold diluted FITC-Annexin V, and a 20-fold diluted EthD-III. Then, the normal human fibroblast was cultured at 37° C. for 30 minutes. Then, after removing culture supernatant, the normal human fibroblast was washed twice in the 1×Binding Buffer. New 1×Binding Buffer was added to the normal human fibroblast after the washing, and images of nuclear staining (viable cell), Annexin V staining (apoptosis), and an EthD-III staining (necrosis) were taken by a fluorescence microscope. The amount of apoptosis cells and the amount of necrosis cells were calculated from the fluorescent observation images. Furthermore, FITC-Annexin V, EthD-III and 1×Binding Buffer used in Examples were from Apoptotic/Necrotic/Healthy Cells Detection Kit (Takara Bio, Inc. product No.: D25517).

[6] = system: budding yeast (Saccharomyces cerevisiae); settings: cited from earlier work
male and female mouse = settings: cited from earlier work

SMILES: Oc1ccc(/C=C/c2cc(O)cc(O)c2)cc1 [Comparative Example 1, trans-3,4′,5-trihydroxy-stillbene]
- amount of senescent cells versus Control, in words (Normal human fibroblasts [1]; cells cultured for 7 days): more senescent cells among cells cultured for 7 days than Control
- amount of the senescent cells relative to Control (Normal human fibroblasts [1]; cultured for 7 days): 519%
- amount of the senescent cells relative to Control (Normal human fibroblasts [1]; cultured for 14 days): 102%
- amount of the senescent cells relative to Control (Normal human fibroblasts [1]; cultured for 21 days): 64%
- effect on the amount of mitochondria, in words (Normal human fibroblasts [2]; 7 to 21 days of culture): increasing an amount of mitochondria
- amount of mitochondria relative to Control (Normal human fibroblasts [2]; cultured for 7 days): 191%
- amount of mitochondria relative to Control (Normal human fibroblasts [2]; cultured for 14 days): 228%
- effect on the workload of a certain amount of mitochondria, in words (Normal human fibroblasts [3]; 7 to 21 days of culture): decreasing the workload of a certain amount of mitochondria
- workload of a certain amount of mitochondria relative to Control (Normal human fibroblasts [3]; cultured for 7 days): 22%
- workload of a certain amount of mitochondria relative to Control (Normal human fibroblasts [3]; cultured for 14 days): 20%
- workload of a certain amount of mitochondria relative to Control (Normal human fibroblasts [3]; cultured for 21 days): 49%
- effect on the amount of the apoptosis cells, in words (Normal human fibroblasts [4]; 7 to 21 days of culture): increasing the amount of the apoptosis cells
- amount of the apoptosis cells compared to the Control (Normal human fibroblasts [4]; cultured for 7 days): 2184%
- amount of the apoptosis cells compared to the Control (Normal human fibroblasts [4]; cultured for 14 days): 1400%
- amount of the apoptosis cells compared to the Control (Normal human fibroblasts [4]; cultured for 21 days): 4525%
- effect on the amount of the necrosis cells, in words (Normal human fibroblasts [5]; 7 to 21 days of culture): increasing the amount of the necrosis cells in all the periods
- necrosis cells at higher concentration, in words (Normal human fibroblasts [5]; concentration of resveratrol more than 0.0023 wt %): necrosis cells increase too much
- amount of the necrosis cells compared to the Control (Normal human fibroblasts [5]; cultured for 7 days): 125%
- amount of the necrosis cells compared to the Control (Normal human fibroblasts [5]; cultured for 14 days (FIG. 5B), Example 1/2/3 = 0.002/0.01/0.05 wt % ingredient): 801%
- amount of the necrosis cells compared to the Control (Normal human fibroblasts [5]; cultured for 21 days, Example 1/2/3 = 0.002/0.01/0.05 wt % ingredient): 608%
- extension of the life span of the budding yeast [6]: 70%
- effect on life span of mice, in words (male and female mouse): does not extend the life span

Source: patent publication US20220347253A1, “HEALTH FOOD AND COSMETICS FOR INCREASING THE AMOUNT OF APOPTOSIS CELLS AND DECREASING THE AMOUNT OF NECROSIS CELLS AND A METHOD OF MANUFACTURING A SPROUT-FORCING GRAPE SEED-DERIVED INGREDIENT FOR INCREASING THE AMOUNT OF APOPTOSIS CELLS AND DECREASING THE AMOUNT OF NECROSIS CELLS” (priority 2017, published 2022)
